Laboratory results reported in patent US20020044933A1, “Inhibition of intimal hyperplasia using antibodies to PDGF receptors” (priority 1993, published 2002).

How the values were obtained:
[1] = test system: baboon smooth muscle cells; experiment: Inhibition of PDGF mitogenic activity on baboon smooth muscle cells by non-peptidic antagonists; type: cell-based
rat smooth muscle cells = experiment: Inhibition of PDGF-BB binding to rat smooth muscle cells

Row | SMILES | inhibition of PDGF mitogenic activity on baboon smooth muscle cells [1] | inhibition of PDGF mitogenic activity on baboon smooth muscle cells in the presence of heparin ([1]; with heparin) | inhibition of binding of PDGF-BB to rat smooth muscle cells (rat smooth muscle cells) | inhibition of PDGF-BB mitogenic activity on baboon smooth muscle cells [1]
1 | CC1CCCC=CC2CC(O)CC2C(O)C=CC(=O)O1 (stereo not shown) [Brefeldin A, 1,6,7,8,9,11a,12,13,14,14a-Decahydro-1,13-dihydroxy-6-methyl-4H-cyclopent[f]oxacyclotridecin-4-one] | inhibit | enhanced |  | 
2 | O=C(/C=C/c1ccccc1)OC1C=CC2COC(=O)C2C1C(=O)O (stereo not shown) [92-0825] |  |  | inhibit binding | inhibit PDGF-BB mitogenic activity
